For assay [1], the target named is Cholinesterase (Equus caballus, UniProt P81908). Nature of the assay: Inhibition of equine serum BuChE using BTC as substrate after 15 mins by Ellman's method. For orientation: Ellman's reagent forms a yellow product with free thiols.
For assay [2], the target named is T1, Amine oxidase [flavin-containing] B (Homo sapiens, UniProt P27338).
T1 sequence (P27338 whole entry): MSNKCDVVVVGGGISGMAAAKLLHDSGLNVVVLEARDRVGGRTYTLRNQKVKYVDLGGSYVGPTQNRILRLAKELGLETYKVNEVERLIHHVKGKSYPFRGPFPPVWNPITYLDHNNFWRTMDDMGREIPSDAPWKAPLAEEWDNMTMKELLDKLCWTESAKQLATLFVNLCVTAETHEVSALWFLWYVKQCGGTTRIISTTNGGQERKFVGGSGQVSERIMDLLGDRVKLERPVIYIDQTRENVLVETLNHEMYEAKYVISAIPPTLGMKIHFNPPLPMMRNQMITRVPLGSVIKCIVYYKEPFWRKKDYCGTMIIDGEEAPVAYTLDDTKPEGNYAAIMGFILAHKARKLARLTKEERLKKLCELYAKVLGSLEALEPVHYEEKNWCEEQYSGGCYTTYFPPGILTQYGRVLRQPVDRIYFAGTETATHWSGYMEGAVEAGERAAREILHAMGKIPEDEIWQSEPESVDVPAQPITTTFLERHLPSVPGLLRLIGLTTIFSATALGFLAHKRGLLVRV
Description: Inhibition of recombinant human MAO-B.

The species entered for assay [3] is Homo sapiens. Description: Selectivity index, ratio of IC50 for recombinant human MAO-A to IC50 for recombinant human MAO-B.
In assay [4] the target is Cholinesterase (Equus caballus) (UniProt P81908). Nature of the assay: Inhibition of equine serum BuChE at 25 uM using BTC as substrate after 15 mins by Ellman's method relative to control.
The target in assay [5] is T2, Amine oxidase [flavin-containing] A (Homo sapiens, UniProt P21397).
T2 sequence (P21397 whole entry): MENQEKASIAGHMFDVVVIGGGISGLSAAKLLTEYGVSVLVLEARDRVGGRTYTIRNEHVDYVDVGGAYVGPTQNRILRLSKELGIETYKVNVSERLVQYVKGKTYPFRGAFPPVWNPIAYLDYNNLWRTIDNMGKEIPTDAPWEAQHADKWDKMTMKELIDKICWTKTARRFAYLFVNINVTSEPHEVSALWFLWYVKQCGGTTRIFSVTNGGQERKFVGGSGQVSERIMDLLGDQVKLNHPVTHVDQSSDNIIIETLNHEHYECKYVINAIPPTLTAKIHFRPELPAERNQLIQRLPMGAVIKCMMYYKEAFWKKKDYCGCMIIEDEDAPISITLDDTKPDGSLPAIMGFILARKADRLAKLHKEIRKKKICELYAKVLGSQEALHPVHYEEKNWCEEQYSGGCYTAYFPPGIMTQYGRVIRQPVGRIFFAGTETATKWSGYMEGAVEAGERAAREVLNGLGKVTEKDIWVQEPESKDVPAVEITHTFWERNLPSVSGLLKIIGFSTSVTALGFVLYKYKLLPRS
Nature of the assay: Inhibition of recombinant human MAO-A.

The species entered for assay [6] is Homo sapiens. Nature of the assay: Selectivity index, ratio of IC50 for human erythrocytes Ache to IC50 for human serum BuChe.
The target in assay [7] is Cholinesterase (Homo sapiens, UniProt P06276). Description: Inhibition of human serum BuChE using acetylcholine iodide as substrate incubated for 15 mins by Ellman's method.
The target in assay [8] is Acetylcholinesterase (Homo sapiens, UniProt P22303). Description: Inhibition of human erythrocytes AChE using acetylcholine iodide as substrate incubated for 15 mins by Ellman's method.
The target of assay [9] is Acetylcholinesterase (Electrophorus electricus, UniProt O42275). Description: Inhibition of Electrophorus electricus AChE using acetylcholine iodide as substrate incubated for 15 mins by Ellman's method.
The test system of a further assay is Mus musculus. Description: Improvement in cognitive impairment in scopolamine-induced mouse model of amnesia assessed as increase in spontaneous alteration at 10 mg/kg by Y-maze test. The class given is functional, organism-based.

Active and inactive are the calls of the source. No cut-off for these calls is given here. Bounds are passed on as bounds.

For orientation: IC50 means the midpoint of a concentration-inhibition curve. As usually defined, the inhibition is how much of the control response was suppressed. Read a low inhibition as little suppression.

Sequence of Cholinesterase (Equus caballus) (P81908 whole entry): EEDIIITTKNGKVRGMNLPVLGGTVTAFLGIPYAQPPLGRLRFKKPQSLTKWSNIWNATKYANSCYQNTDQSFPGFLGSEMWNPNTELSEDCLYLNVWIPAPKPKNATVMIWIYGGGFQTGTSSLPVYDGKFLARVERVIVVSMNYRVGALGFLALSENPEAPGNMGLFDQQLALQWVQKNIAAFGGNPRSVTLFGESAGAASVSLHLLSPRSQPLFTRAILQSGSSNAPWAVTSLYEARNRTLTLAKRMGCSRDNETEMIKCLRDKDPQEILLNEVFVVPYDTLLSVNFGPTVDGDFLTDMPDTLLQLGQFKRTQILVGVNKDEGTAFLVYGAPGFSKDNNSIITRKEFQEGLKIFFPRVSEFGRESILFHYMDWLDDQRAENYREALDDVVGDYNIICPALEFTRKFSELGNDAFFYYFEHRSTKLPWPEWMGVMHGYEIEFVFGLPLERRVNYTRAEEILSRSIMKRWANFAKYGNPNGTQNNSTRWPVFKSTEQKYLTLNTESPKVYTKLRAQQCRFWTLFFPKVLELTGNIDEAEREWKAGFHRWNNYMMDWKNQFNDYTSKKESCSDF
Sequence of Cholinesterase (Equus caballus, UniProt P81908) (P81908 whole entry): as above
Sequence of Acetylcholinesterase (Homo sapiens, UniProt P22303) (P22303 whole entry): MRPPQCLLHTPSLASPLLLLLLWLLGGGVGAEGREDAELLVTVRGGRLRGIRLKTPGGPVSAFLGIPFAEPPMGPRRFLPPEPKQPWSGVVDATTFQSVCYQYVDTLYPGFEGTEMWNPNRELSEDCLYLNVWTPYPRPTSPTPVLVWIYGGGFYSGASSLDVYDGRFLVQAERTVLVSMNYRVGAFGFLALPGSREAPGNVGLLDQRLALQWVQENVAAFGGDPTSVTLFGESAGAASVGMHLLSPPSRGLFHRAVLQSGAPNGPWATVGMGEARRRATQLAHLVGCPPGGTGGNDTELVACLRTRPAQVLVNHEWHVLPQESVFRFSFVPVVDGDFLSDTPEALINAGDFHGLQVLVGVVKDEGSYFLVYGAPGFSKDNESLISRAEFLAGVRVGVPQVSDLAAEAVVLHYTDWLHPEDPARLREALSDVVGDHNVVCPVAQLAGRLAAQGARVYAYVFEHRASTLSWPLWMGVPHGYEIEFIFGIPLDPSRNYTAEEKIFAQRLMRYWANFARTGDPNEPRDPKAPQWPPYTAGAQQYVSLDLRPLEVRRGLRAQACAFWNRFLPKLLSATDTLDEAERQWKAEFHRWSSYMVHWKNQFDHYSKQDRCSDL
Sequence of Acetylcholinesterase (Electrophorus electricus, UniProt O42275) (O42275 whole entry): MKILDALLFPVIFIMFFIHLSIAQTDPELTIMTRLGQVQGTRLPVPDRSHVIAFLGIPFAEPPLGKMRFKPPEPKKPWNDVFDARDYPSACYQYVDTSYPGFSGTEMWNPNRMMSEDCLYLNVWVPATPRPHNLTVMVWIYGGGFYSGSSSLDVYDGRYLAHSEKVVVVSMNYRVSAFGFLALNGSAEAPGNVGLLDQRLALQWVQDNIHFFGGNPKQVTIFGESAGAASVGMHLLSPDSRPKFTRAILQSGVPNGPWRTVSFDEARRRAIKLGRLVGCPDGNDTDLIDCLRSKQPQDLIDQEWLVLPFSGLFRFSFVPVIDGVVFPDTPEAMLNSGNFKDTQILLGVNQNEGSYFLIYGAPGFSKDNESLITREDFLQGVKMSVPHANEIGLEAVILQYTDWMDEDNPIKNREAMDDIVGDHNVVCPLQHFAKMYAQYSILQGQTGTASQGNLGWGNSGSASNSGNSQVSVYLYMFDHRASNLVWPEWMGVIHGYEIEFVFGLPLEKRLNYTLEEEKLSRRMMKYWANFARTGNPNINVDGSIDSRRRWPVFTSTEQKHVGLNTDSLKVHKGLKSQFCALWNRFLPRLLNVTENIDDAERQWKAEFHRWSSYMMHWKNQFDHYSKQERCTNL
Sequence of Cholinesterase (Homo sapiens, UniProt P06276) (P06276 whole entry): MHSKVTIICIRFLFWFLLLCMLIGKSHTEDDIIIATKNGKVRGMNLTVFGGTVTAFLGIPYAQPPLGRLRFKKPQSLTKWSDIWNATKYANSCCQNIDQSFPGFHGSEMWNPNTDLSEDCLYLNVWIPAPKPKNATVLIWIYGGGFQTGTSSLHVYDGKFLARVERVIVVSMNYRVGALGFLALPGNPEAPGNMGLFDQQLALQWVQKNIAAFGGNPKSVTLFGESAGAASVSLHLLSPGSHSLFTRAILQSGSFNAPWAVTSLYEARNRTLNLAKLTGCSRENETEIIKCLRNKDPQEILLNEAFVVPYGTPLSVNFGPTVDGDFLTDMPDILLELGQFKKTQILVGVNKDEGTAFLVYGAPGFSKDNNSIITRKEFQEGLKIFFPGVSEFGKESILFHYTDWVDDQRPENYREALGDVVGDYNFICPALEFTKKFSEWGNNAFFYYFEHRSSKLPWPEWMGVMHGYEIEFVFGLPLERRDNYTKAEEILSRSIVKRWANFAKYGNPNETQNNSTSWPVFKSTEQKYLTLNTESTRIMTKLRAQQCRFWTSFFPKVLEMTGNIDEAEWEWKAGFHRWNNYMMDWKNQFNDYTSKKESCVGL

Turning to `COc1cc(/C=C/C(=O)N2CCC(Cc3ccccc3)CC2)ccc1OC(=O)N(c1ccccc1)c1ccccc1`, the IC50 on Cholinesterase [1] was greater than 100 µM; in [2], 13.3 µM; in assay [5], 34.6 µM; against Cholinesterase [7], 36.7 µM; at Acetylcholinesterase [8], 32.1 µM; on Acetylcholinesterase [9], 88.3 µM. Moreover, the Ratio IC50 is 2.6 in the assay filed under Homo sapiens [3] and 0.9 in the assay filed under Homo sapiens [6]. The compound further gave an inhibition in assay [4] of 6.6%.

In the case of `COc1cc(/C=C/C(=O)N2CCN(Cc3ccccc3)CC2)ccc1OC(=O)N(c1ccccc1)c1ccccc1`, the IC50 was greater than 100 µM on Cholinesterase [1]; 31.8 µM in assay [2]; 14.7 µM in assay [5]; 22.3 µM against Cholinesterase [7]; 28.7 µM against Acetylcholinesterase [8]; 89.8 µM at Acetylcholinesterase [9]. Moreover, the Ratio IC50 in the assay filed under Homo sapiens [3] was found to be 0.5; in the assay filed under Homo sapiens [6], 1.3. The compound also gave an inhibition in assay [4] of 9.7%.

On to `CC(=O)OCC[N+](C)(C)C`, for which, in the assay with Mus musculus, the outcome was inactive.
